Experimental data from ChEMBL document CHEMBL1158912, “Structure and in vitro antiviral activity of sesquiterpene glycosides from Calendula arvensis” (J Nat Prod, 1990).
Values after ≈ are worked out from the molar mass of the structure shown.

Experiments:
[1] = Cytotoxicity against golden hamster CER cells assessed as cell viability at 100 ug/mL after 48 hrs by neutral red assay; type: cell-based, Mesocricetus auratus
rhinovirus A1B [2] = experiment: Antiviral activity against HRV1B infected in human HeLa cells assessed as inhibition of virus-induced cytopathicity at 0.8 ug/ml after 48 hrs; type: functional, Human rhinovirus 1B; design: scale not given: the % may be the effect or the level left
[3] = tested on: Vesicular stomatitis virus; experiment: Antiviral activity against VSV infected in CER cells assessed as reduction in plaque formation after 48 hrs by neutral red assay; type: functional
rhinovirus A1B [4] = experiment: Antiviral activity against HRV1B infected in human HeLa cells assessed as inhibition of virus-induced cytopathicity at 20 ug/ml after 48 hrs; type: functional, Human rhinovirus 1B; design: scale not given: the % may be the effect or the level left
HeLa [5] = experiment: Cytotoxicity against human HeLa cells assessed as cell viability at 20 ug/mL after 48 hrs by neutral red assay; type: cell-based
[6] = tested on: Vesicular stomatitis virus; experiment: Antiviral activity against VSV infected in CER cells assessed as reduction in plaque formation at 4 ug/ml after 48 hrs by neutral red assay; type: functional; design: scale not given: the % may be the effect or the level left
rhinovirus A1B [7] = experiment: Antiviral activity against HRV1B infected in human HeLa cells assessed as inhibition of virus-induced cytopathicity at 4 ug/ml after 48 hrs; type: functional, Human rhinovirus 1B; design: scale not given: the % may be the effect or the level left
[8] = Cytotoxicity against golden hamster CER cells assessed as cell viability at 20 ug/mL after 48 hrs by neutral red assay; type: cell-based, Mesocricetus auratus
HeLa [9] = experiment: Cytotoxicity against human HeLa cells assessed as cell viability at 100 ug/mL after 48 hrs by neutral red assay; type: cell-based
[10] = tested on: Vesicular stomatitis virus; experiment: Antiviral activity against VSV infected in CER cells assessed as reduction in plaque formation at 20 ug/ml after 48 hrs by neutral red assay; type: functional; design: scale not given: the % may be the effect or the level left
[11] = tested on: Vesicular stomatitis virus; experiment: Antiviral activity against VSV infected in CER cells assessed as reduction in plaque formation at 0.8 ug/ml after 48 hrs by neutral red assay; type: functional; design: scale not given: the % may be the effect or the level left
[12] = tested on: Vesicular stomatitis virus; experiment: Antiviral activity against VSV infected in CER cells assessed as reduction in plaque formation at 50 ug/ml after 48 hrs by neutral red assay; type: functional; design: scale not given: the % may be the effect or the level left
[13] = tested on: Vesicular stomatitis virus; experiment: Antiviral activity against VSV infected in CER cells assessed as reduction in plaque formation at 100 ug/ml after 48 hrs by neutral red assay; type: functional; design: scale not given: the % may be the effect or the level left
rhinovirus A1B [14] = experiment: Antiviral activity against HRV1B infected in human HeLa cells assessed as inhibition of virus-induced cytopathicity at 100 ug/ml after 48 hrs; type: functional, Human rhinovirus 1B; design: scale not given: the % may be the effect or the level left
rhinovirus A1B [15] = experiment: Antiviral activity against HRV1B infected in human HeLa cells assessed as inhibition of virus-induced cytopathicity at 50 ug/ml after 48 hrs; type: functional, Human rhinovirus 1B; design: scale not given: the % may be the effect or the level left

| Compound | Activity [1] | Activity (rhinovirus A1B [2]) [%] | MIC50 [3] [µg/mL] | Activity (rhinovirus A1B [4]) [%] | Activity (HeLa [5]) | Activity [6] [%] | Activity (rhinovirus A1B [7]) [%] | Activity [8] | Activity (HeLa [9]) | Activity [10] [%] | Activity [11] [%] | Activity [12] [%] | Activity [13] [%] | Activity (rhinovirus A1B [14]) [%] | Activity (rhinovirus A1B [15]) [%] |
| --- | --- | --- | --- | --- | --- | --- | --- | --- | --- | --- | --- | --- | --- | --- | --- |
| CC(=O)O[C@H]1[C@H](O[C@]2(C)CC[C@@H]3[C@H]([C@@H]4[C@H](C)CC[C@@H]42)C3(C)C)O[C@H](C)[C@H](O)[C@@H]1O | Non-toxic | 0 | > 20 | 0 | Non-toxic | 7 | 0 | Non-toxic | Non-toxic | 10 | 0 | – | – | – | – |
| CC(C)C(=O)O[C@H]1[C@H](O[C@]2(C)CC[C@@H]3[C@H]([C@@H]4[C@H](C)CC[C@@H]42)C3(C)C)O[C@H](C)[C@H](O)[C@@H]1O | Non-toxic | 0 | > 20 | 0 | Non-toxic | 0 | 0 | Non-toxic | Non-toxic | 9 | 0 | – | – | – | – |
| CC(C)[C@@H]1CC[C@@H](C)C23CC[C@@](C)(O[C@@H]4O[C@H](C)[C@H](O)[C@H](O)[C@H]4O)[C@@H]2[C@@H]13 (some centres undefined) [EPICUBEBOL GLYCOSIDE] | Non-toxic | – | 36 (≈ 97.7 µM) | 0 | Non-toxic | 0 | 0 | Non-toxic | Non-toxic | 4 | – | 90 | 100 | 25 | 0 |
| CC/C(C)=C\C(=O)O[C@H]1[C@H](O[C@]2(C)CC[C@@H]3[C@H]([C@@H]4[C@H](C)CC[C@@H]42)C3(C)C)O[C@H](C)[C@H](O)[C@@H]1O | Non-toxic | 0 | > 20 | 0 | Non-toxic | 18 | 0 | Non-toxic | Non-toxic | 22 | 5 | – | – | – | – |
| C/C=C(\C)C(=O)O[C@H]1[C@H](O[C@]2(C)CC[C@@H]3[C@H]([C@@H]4[C@H](C)CC[C@@H]42)C3(C)C)O[C@H](C)[C@H](O)[C@@H]1O | Non-toxic | 0 | > 20 | 0 | Non-toxic | 13 | 0 | Non-toxic | Non-toxic | 22 | 0 | – | – | – | – |
| CCC(C)C(=O)O[C@H]1[C@H](O[C@]2(C)CC[C@@H]3[C@H]([C@@H]4[C@H](C)CC[C@@H]42)C3(C)C)O[C@H](C)[C@H](O)[C@@H]1O (some centres undefined) | Non-toxic | 0 | > 20 | 0 | Non-toxic | 20 | 0 | Non-toxic | Non-toxic | 30 | 5 | – | – | – | – |
| C[C@@H]1CC[C@H]2[C@@H]1[C@H]1[C@@H](CC[C@@]2(C)O[C@@H]2O[C@H](C)[C@H](O)[C@H](O)[C@H]2O)C1(C)C | Non-toxic | 0 | 14 (≈ 38 µM) | 0 | Non-toxic | 19 | 0 | Non-toxic | Non-toxic | 73 | 8 | – | – | – | – |
